Laboratory results taken from paper PMC5945515, “Measuring glucocorticoid receptor expression in vivo with PET” (Oncotarget, 2018).
Where two headings read alike, the source gives them in different places.

Experiments:
GR = conditions: cited from earlier work
[1] = cited from earlier work
human GR = target: T1, human GR (Homo sapiens, UniProt P04150); assay: Competition binding assay on cells, human GR; conditions: Supplementary Table 1; read-out: KD for human GR
T1 construct: PC3 and DU145, two human prostate cancer models with endogenous GR expression; endogenous in cells; host or cells: DU145
T1 sequence (P04150 1-777): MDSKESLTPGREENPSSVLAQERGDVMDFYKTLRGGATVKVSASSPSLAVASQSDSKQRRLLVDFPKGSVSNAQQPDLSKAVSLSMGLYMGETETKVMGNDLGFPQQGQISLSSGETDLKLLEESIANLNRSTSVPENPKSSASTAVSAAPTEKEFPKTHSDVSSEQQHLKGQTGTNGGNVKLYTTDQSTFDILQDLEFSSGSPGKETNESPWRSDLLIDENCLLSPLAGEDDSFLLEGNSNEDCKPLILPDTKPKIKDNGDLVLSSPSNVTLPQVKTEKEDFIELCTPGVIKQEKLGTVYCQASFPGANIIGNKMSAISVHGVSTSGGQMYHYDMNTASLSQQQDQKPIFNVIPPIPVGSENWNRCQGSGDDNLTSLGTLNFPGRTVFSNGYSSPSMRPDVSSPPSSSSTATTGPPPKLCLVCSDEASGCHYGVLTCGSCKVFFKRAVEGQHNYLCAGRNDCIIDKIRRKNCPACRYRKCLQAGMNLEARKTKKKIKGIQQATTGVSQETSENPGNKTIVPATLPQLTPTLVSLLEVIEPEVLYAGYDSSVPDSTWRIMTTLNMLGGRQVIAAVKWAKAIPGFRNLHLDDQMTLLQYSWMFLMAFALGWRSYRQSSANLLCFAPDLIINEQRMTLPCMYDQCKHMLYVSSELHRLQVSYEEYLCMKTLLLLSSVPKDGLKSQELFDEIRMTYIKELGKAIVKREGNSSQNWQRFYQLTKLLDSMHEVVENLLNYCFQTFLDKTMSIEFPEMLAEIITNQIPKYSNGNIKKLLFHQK
Procedure: The KD for subfamily 3 group C nuclear hormone receptors was determined on cells by displacing ^3H-steroidal agonists for the respective receptor.
The cold ligands and ^3H-steroids were co-incubated on cells in PBS at room temperature for one hour. Following incubation, the cells were washed twice with ice cold PBS and the unbound activity was retained for analysis. The cells were lysed with 1 mL of 1 M NaOH and collected. Bound and unbound fractions were counted in a liquid scintillation counter and expressed as a percentage of the total activity added per equal relative number of cells. […] The specific binding component was plotted against the log of the competing ligand and curve fit using a non-linear regression algorithm with PRISM software.

[2] = PET/CT and biodistribution in tumor naive C57BL6/J mice; format: in vivo, mouse
subcutaneous PC3 tumors = assay: Biodistribution in mice bearing subcutaneous PC3 tumors; format: in vivo, mouse; conditions: one hour post injection
Procedure: (§1) All animal experiments were conducted with prior approval from IACUC at UCSF. Five to seven week old male nu/nu, intact or adx C57BL6/J mice were purchased from Charles River. Adx mice were provided drinking water supplemented with 0.9% NaCl (aq.). Male nu/nu mice received a subcutaneous bolus of 1 × 10^7 PC3 or DU145 cells in Matrigel and growth media (1:1 v/v) in the flank for tumor imaging studies with ^18F-GR02. For subrenal capsule tumor implants, 4–6 week old male Rag2 knockout mice (Taconic Farms) were placed under anesthesia with ∼2% isoflurane. A half centimeter dorsal midline incision was performed, and one kidney was gently pulled though the incision by applying pressure to the muscle wall. The kidney capsule was lifted from the parenchyma of the kidney, and PC3 cells (5 × 10^6 in 50 μL PBS) were injected into the pocket under the capsule. […]
(§2) All radiotracers were administered via tail vein injection in < 300 μL PBS. […] All imaging data was reconstructed, decay corrected, and analyzed with AMIDE or ASIPro software. […]
(§3) At dedicated time points post injection, mice were humanely euthanized with CO2 (g) asphyxiation and blood and tissues were removed, washed, dried and weighed. The activity associated with each tissue was measured with a gamma counter. The data was decay corrected and expressed as a percentage of the injected dose per gram of tissue with PRISM software.

[3] = Log P determination (octanol:water); format: physicochemical
Procedure: To a microcentrifuge tube containing 1 mL of octanol:water (1:1 v/v) was added 50 μL of ^18F-GR02 (total activity = 37 MBq). The solution was vortexed vigorously for 30 sec, and the biphasic layers were allowed to separate. The layers were manually pipetted into new microcentrifuge tubes, and the activity of each fraction was read with a dose calibrator. The water fraction contained 1.7 MBq, and the octanol fraction contained 35.3 MBq.

[4] = test system: subrenal capsule PC3 tumors; assay: Biodistribution in mice bearing subrenal capsule PC3 tumors; format: in vivo, mouse
Procedure: All animal experiments were conducted with prior approval from IACUC at UCSF. Five to seven week old male nu/nu, intact or adx C57BL6/J mice were purchased from Charles River. Adx mice were provided drinking water supplemented with 0.9% NaCl (aq.). Male nu/nu mice received a subcutaneous bolus of 1 × 10^7 PC3 or DU145 cells in Matrigel and growth media (1:1 v/v) in the flank for tumor imaging studies with ^18F-GR02. For subrenal capsule tumor implants, 4–6 week old male Rag2 knockout mice (Taconic Farms) were placed under anesthesia with ∼2% isoflurane. A half centimeter dorsal midline incision was performed, and one kidney was gently pulled though the incision by applying pressure to the muscle wall. The kidney capsule was lifted from the parenchyma of the kidney, and PC3 cells (5 × 10^6 in 50 μL PBS) were injected into the pocket under the capsule. The kidney was placed back and the skin incision was closed using 3 surgical sutures. The mice were treated once with Carprofen (5–10 mg/kg) to ease recovery. Mice were observed over 24 hours for signs of post-operative pain, bleeding and/or other complications. Tumor progression was followed for 7–14 days after surgery with a 14 T Agilent small animal MRI to identify tumors of suitable size to conduct the biodistribution study.
as §3

[5] = PET/CT and biodistribution in tumor naive C57BL6/J mice; format: in vivo, mouse; remark: listed apart in the source
Procedure: All radiotracers were administered via tail vein injection in < 300 μL PBS. Intact male C57BL6/J or nu/nu mice were treated with vehicle or mife. (25 mg/kg) via oral gavage for four days prior to injection with ∼11 MBq of ^18F-GR02. Mice were anesthetized and imaged with a Siemens Inveon small animal PET/CT at dedicated time points post injection. Each mouse was imaged until 20 million coincident events were collected. All imaging data was reconstructed, decay corrected, and analyzed with AMIDE or ASIPro software. Maximum intensity projections were generated with ASIPro software. ASIPro software was also used to draw manual two dimensional regions of interest to calculate SUV data for static or dynamic acquisitions.
as §3

[6] = test system: subcutaneous DU145 tumors; assay: Biodistribution in mice bearing subcutaneous DU145 tumors; format: in vivo, mouse; conditions: one hour post injection
Procedure: as §1, §2, §3

[7] = intact male nu/nu mice, vehicle
[8] = octanol:water 1:1, total activity 37 MBq
[9] = mouse adrenalectomized, 60 minutes post injection
[10] = mouse intact, 60 minutes post injection

CC1(C)O[C@@H]2C[C@H]3[C@@H]4CCC5=CC(=O)C=C[C@]5(C)[C@@]4(F)[C@@H](O)C[C@]3(C)[C@]2(C(=O)CF)O1 [21-[18F]-deoxytriamcinolone acetonide]
Kd (GR; ref PMID 1526811): 2.1 nM

CC12C=CC(=O)C=C1CCC1C2C(=O)CC2(C)C1CCC2(O)C(=O)C[18F] (stereo not drawn) [21-[18F]-prednisone]
logP o/w ([1]; ref PMID 3495649): 2.1

C=CCC1Oc2cccc(OC)c2-c2ccc3c(c21)C(C)=CC(C)(C)N3 (stereo not drawn) [[11 C]-Al-438]
Kd (GR; ref PMID 17499506): 8.1 nM

C=CCC1Oc2cccc(O[11CH3])c2-c2ccc3c(c21)C(C)=CC(C)(C)N3 (stereo not drawn) [[11 C]-Al-438]
logP o/w ([1]; ref PMID 17499506): 6.13

CC12C=CC(=O)C=C1CCC1C2C(O)CC2(C)C1CCC2(O)C(=O)COCCCF (stereo not drawn) [^18F-GR01]
Kd (human GR): 3.8 nM

CC12C=CC(=O)C=C1CCC1C2C(O)CC2(C)C1CCC2(O)C(=O)COCCC[18F] (stereo not drawn) [^18F-GR01]
bone associated activity ([2]; intact male C57BL6/J mice, 60 minutes post injection): ~20 % ID/g

CC12C=CC(=O)C=C1CCC1C2C(O)CC2(C)C1CCC2(O)C(=O)CNC(=O)c1ccc(F)cc1 (stereo not drawn) [^18F-GR02]
Kd (human GR): 15.9 nM

CC12C=CC(=O)C=C1CCC1C2C(O)CC2(C)C1CCC2(O)C(=O)CNC(=O)c1ccc([18F])cc1 (stereo not drawn) [^18F-GR02]
uptake in subcutaneous PC3 tumors after mife. (subcutaneous PC3 tumors; four days prior mife. 25 mg/kg): 0.18 ± 0.07 % ID/g
uptake in subcutaneous PC3 tumors (subcutaneous PC3 tumors; [7]): 0.37 ± 0.1 % ID/g
activity in the octanol fraction [3, 8]: 35.3 MBq
activity in the water fraction [3, 8]: 1.7 MBq
log P (o/w) ([3]; octanol:water 1:1 v/v): 1.33
uptake in the brain across the treatment arms ([2]; C57BL6/J mice, intact/adx, vehicle/mife., 60 min post injection): 0.05–0.2 % ID/g
Blood [2, 9]: 2.36 ± 1.6 % ID/g
Bone [2, 9]: 1.25 ± 0.8 % ID/g
Brain [2, 9]: 0.17 ± 0.05 % ID/g
Heart [2, 9]: 2.39 ± 0.6 % ID/g
Kidney [2, 9]: 13.42 ± 3.1 % ID/g
Liver [2, 9]: 21.83 ± 3.3 % ID/g
Lung [2, 9]: 2.15 ± 1.0 % ID/g
Muscle [2, 9]: 1.15 ± 0.4 % ID/g
Spleen [2, 9]: 1.41 ± 0.6 % ID/g
Stomach [2, 9]: 5.54 ± 2.4 % ID/g
Blood [2, 10]: 0.83 ± 0.3 % ID/g
Kidney [2, 10]: 3.96 ± 1.9 % ID/g
Liver [2, 10]: 7.98 ± 1.5 % ID/g
Muscle [2, 10]: 0.36 ± 0.3 % ID/g
Stomach [2, 10]: 0.62 ± 0.1 % ID/g
time of peak accumulation in the liver post injection ([2]; one hour dynamic PET scan, intact male C57BL6/J mouse): ≤ 10 min
fold higher uptake in renal capsule tumor vs subcutaneous PC3 tumor ([4]; mouse, in vivo, sc): ~16 fold
uptake in renal capsule PC3 tumor after mife. ([4]; pretreatment with mife. 25 mg/kg, 60 minutes post injection): 2.84 ± 1.8 % ID/g
uptake in renal capsule PC3 tumor ([4]; vehicle, 60 minutes post injection): 6.24 ± 1.0 % ID/g
fold higher specific binding in liver vs prior GR-targeted radiotracers ([5]; compared with literature data of Supplementary Table 2): 3–10 fold
Bone [5, 10]: 0.28 ± 0.1 % ID/g
Brain [5, 10]: 0.06 ± 0.02 % ID/g
Heart [5, 10]: 0.81 ± 0.5 % ID/g
Lung [5, 10]: 0.64 ± 0.4 % ID/g
Spleen [5, 10]: 0.63 ± 0.1 % ID/g
uptake in subcutaneous DU145 tumors after mife. ([6]; four days prior mife. 25 mg/kg): 0.23 ± 0.09 % ID/g
uptake in subcutaneous DU145 tumors [6, 7]: 0.45 ± 0.2 % ID/g

CC#C[C@]1(O)CC[C@H]2[C@@H]3CCC4=CC(=O)CCC4=C3[C@@H](c3ccc(N(C)C)cc3)C[C@@]21C [mife., mifepristone, reference compound]
effect on 18F-GR02 uptake in several tissues, including liver, kidney and stomach ([2]; adx C57BL6/J mice, mife. pretreatment): suppressed ^18F-GR02 uptake to a statistically significant extent
effect on 18F-GR02 uptake in liver, spleen, small intestine and stomach ([5]; intact C57BL6/J mice, 25 mg/kg daily oral gavage for four days, one hour post injection): statistically significant suppression
